Experimental data from ChEMBL document CHEMBL1150715, “Puupehenone, a cytotoxic metabolite from a deep water marine sponge, Stronglyophora hartmani” (J Nat Prod, 1987).
Converted amounts (≈) assume the structure as drawn.

Assays:
P388 [1] = assay: In vivo cytotoxicity against mouse P388 cells at 25 mg/kg administered daily for 9 days relative to control; assay type: functional
HCT-8 = assay: Cytotoxicity against human HCT8 cells; assay type: functional, cell-based
MCF7 = assay: Cytotoxicity against human MCF7 cells; assay type: functional, cell-based
P388 [2] = assay: Cytotoxicity against mouse P388 cells; assay type: functional, cell-based
A549 = assay: Cytotoxicity against human A549 cells; assay type: functional, cell-based
Candida albicans = assay: Antifungal activity against Candida albicans; assay type: functional

## CC1(C)CCC[C@]2(C)[C@H]3C=C4C=C(O)C(=O)C=C4O[C@@]3(C)CC[C@@H]12 [PUUPEHENONE]
P388 [1]
  T/C: 119%
HCT-8
  IC50: 1 µg/mL (≈ 3.04 µM)
MCF7
  IC50: 0.1 µg/mL (≈ 0.304 µM)
P388 [2]
  IC50: 1 µg/mL (≈ 3.04 µM)
A549
  IC50: 0.1 µg/mL (≈ 0.304 µM)
Candida albicans
  MIC: 3 µg/mL (≈ 9.13 µM)
